# In PMC4783973, “Synthetic Human TLR9-LRR11 Peptide Attenuates TLR9 Signaling by Binding to and thus Decreasing Internalization of CpG Oligodeoxynucleotides” (International Journal of Molecular Sciences, 2016):
# Read-outs that look alike come from different tables or passages of the source.
# Key:
# [1] = test system: NF-κB p65 subunit; assay: NF-κB activity assay, p65 subunit in nuclear extract of RAW264.7 cells (Trans^AM ELISA); type: cell-based; settings: CpG ODN 1.5 μM; 4 h; n = 3
# Description: Figure 3 Synthetic peptide (SP) inhibited NF-κB activation induced by CpG oligodeoxynucleotides (CpG ODN) in RAW264.7 cells. RAW264.7 cells (5.0 × 10^6 cells) grown in six-well plates were treated with 1.5 μM of ODN2006 (A) or ODN107 (B) preincubated with SP (0, 0.5, 1.5, or 4.5 μM) or unrelated peptide (URP) (4.5 μM) at 37 °C for 15 min. After incubation for 4 h, the cells were collected to extract nuclear proteins. The p65 subunit was detected using enzyme-linked immunosorbent assay (ELISA) kits. Data from one of three independent experiments are shown (n = 3). “*”, p < 0.05 vs. ODN2006 or ODN107; “**”, p < 0.01 vs. ODN2006 or ODN107; “#”, p > 0.05 vs. ODN2006 or ODN107.
# (§1) The RAW264.7 cell line was purchased from American Type Culture Collection (ATCC, Manassas, VA, USA). Cells were cultured in DMEM (high glucose) medium containing 10% FCS in a 37 °C humidified atmosphere with 5% CO2. Cells diluted with 0.4% trypan blue in phosphate-buffered saline (PBS, 0.1 mM, pH 7.2–7.4) were counted using a hemocytometer.
# RAW264.7 cells (5.0 × 10^6 cells) were placed in six-well plates for 4 h, and the supernatants were then replaced with fresh medium containing 1.5 μM of ODN2006 or ODN107 that had been preincubated with SP (0, 0.5, 1.5, or 4.5 μM) or URP (4.5 μM) at 37 °C for 15 min. After incubation for 4 h, the cells were collected to extract nuclear proteins. Equal amounts of each sample were used to detect the DNA binding activity of the NF-κB p65 subunit using Trans^AM NF-κB ELISA kits (Active Motif), according to the manufacturer’s instructions.
# [2] = test system: RAW264.7 cells; assay: competitive internalization experiment with non-labeled ODN2006, confocal; type: cell-based; settings: SP 1.5 μM, FAM-2006 1.5 μM, 30 min, n = 100
# Description: However, the results could not exclude the possibility that SP might act on FAM not ODN2006 itself. Therefore, a competitive internalization experiment using non-labeled ODN2006 was performed. Non-labeled ODN2006 and FAM-2006 have same ability to bind SP, but FAM had no such ability. If SP specifically acted on ODN2006, non-labeled ODN2006 might increase FAM-2006 internalization, and the intracellular fluorescence intensity would increase. […] Therefore, FAM-2006 could completely enter the cells, resulting in a subsequent increase in intracellular fluorescence.
# Figure 7 Non-labeled ODN2006 restored internalization of FAM-labeled ODN2006 preincubated with synthetic peptide (SP) (Scale bar = 20 μm). […] The intracellular FAM-2006 (green) (A), mean fluorescence intensity (MFI) values (B) and the percentages of cells with FAM-2006 dots (green fluorescence) (C) were observed as described in Figure 5 (n = 100). […]
# RAW264.7 cells (1.0 × 10^6 cells) were grown on 2-cm glass bottom dishes for 4 h, and supernatants were replaced with 1 mL of serum-free DMEM medium containing FAM-2006 (1.5 μM) that had been pre-incubated with SP (0, 0.5, 1.5 or 4.5 μM) at 37 °C for 15 min. […] The intracellular FAM-2006 (green fluorescence) was observed using a laser confocal microscope. Mean fluorescence intensity (MFI) values were calculated by the ZEN lite 2012 software.
# [3] = test system: RAW264.7 cells; assay: TNF-α and IL-6 release from RAW264.7 cells, both cytokines stated together (ELISA); type: cell-based, mouse; settings: for effect on TNF-α and IL-6 release (CpG ODN stimulation): CpG ODN 1.5 μM, 6 h, n = 4 (Figure 1)
# Description: Figure 1 Synthetic peptide (SP) decreased TNF-α and IL-6 release from RAW264.7 cells treated with CpG oligodeoxynucleotides (CpG ODN). RAW264.7 cells (4.0 × 10^5 cells) grown in 48-well plates were treated with 1.5 μM of ODN2006 or ODN107 preincubated with SP (0, 0.5, 1.5, or 4.5 μM) or unrelated peptide (URP) (4.5 μM) at 37 °C for 15 min. After incubation for 6 h, the supernatants were collected to detect TNF-α (A) and IL-6 (B) using enzyme-linked immunosorbent assay (ELISA) kits. Data from one of three independent experiments are shown (n = 4). “*”, p < 0.05 vs. ODN2006 or ODN107; “**”, p < 0.01 vs. ODN2006 or ODN107; “#”, p > 0.05 vs. ODN2006 or ODN107.
# (§2) Experiments were performed as described in Figure 1. The concentrations of ODN2006, LPS, PAM3 and SP were 1.5 μM, 20 ng/mL, 5 μg/mL and 1.5 μM, respectively. Data from one of three independent experiments are shown (n = 3).
# as §1
# (§3) RAW264.7 cells (4.0 × 10^5 cells) were incubated in 48-well plates for 4 h, and supernatants were replaced with 0.4 mL of serum-free DMEM medium containing 1.5 μM of ODN2006 or ODN107, which had been preincubated with 0, 0.5, 1.5 or 4.5 μM of SP or 4.5 μM of URP at 37 °C for 15 min. After incubation for 6 h, the supernatants were collected to detect TNF-α and IL-6 concentrations using corresponding ELISA kits (eBioscience).
# [4] = test system: IκBα; assay: IκBα degradation and phosphorylation in RAW264.7 cells (western blotting); type: cell-based; settings: ODN2006 1.5 μM; 4 h
# Description: Figure 4 Synthetic peptide (SP) decreased the phosphorylation of IκBα and ERK1/2 in RAW264.7 cells treated with CpG oligodeoxynucleotides (CpG ODN). RAW264.7 cells (1.0 × 10^7 cells) grown in 10-cm dishes were treated with 1.5 μM of ODN2006 (A) or ODN107 (B) pre-incubated with SP (0, 0.5, 1.5, or 4.5 μM) at 37 °C for 15 min. After incubation for 4 h, cells were harvested to extract total protein; and the protein expressions of IκBα, phosphorylated (p)-IκBα, ERK1/2 and p-ERK1/2 were detected by western blotting. Data from one of three independent experiments are shown.
# as §1
# RAW264.7cells (1.0 × 10^7 cells) were incubated in dishes for 4 h, and the supernatants were replaced with fresh medium containing 1.5 μM of ODN2006 that had been preincubated with 0.5, 1.5 or 4.5 μM of SP for 15 min. Cells were sequentially cultured for another 4 h and then harvested to extract total proteins. Equal amounts of proteins from each treatment were separated by SDS-PAGE, and transferred onto 0.22 μm PVDF membranes (Bio-Rad). […]
# [5] = test system: CpG ODN-induced cytokine release; settings: ref [19],[20]; cited from earlier work
# From the text: CpG ODN-induced diseases, such as sepsis and some autoimmune disorders, are triggered by uncontrolled release of proinflammatory cytokines, e.g., TNF-α and IL-6 [18]. […] Herein, we firstly evaluated the inhibitory effect of SP on CpG ODN-induced cytokine release in the cellular tests. Tw ... || NF-κB is one of the most important inflammatory switches that comprise a series of transcription factors that regulate the expressions of various proinflammatory cytokines (IL-1, IL-6, IL-8 and TNF-α). NF-κB activation is depended on the degradation and phosphorylation of IκBα [12].
# [6] = test system: TLR signaling; settings: inhibitors of clathrin-mediated phagocytosis; ref [24]; cited from earlier work
# From the text: (§4) CpG ODN must be internalized within cells before activating TLR9 signaling and inducing cytokines release. Thus, interfering with CpG ODN internalization probably leads to reduced activation of TLR9 signaling.
# [7] = cited from earlier work
# From the text: as §4
# [8] = test system: PAM3/TLR1/TLR2; assay: PAM3CSK4 (TLR1/2)-induced TNF-α and IL-6 release from RAW264.7 cells (ELISA); type: cell-based, mouse; settings: PAM3 5 μg/mL; n = 3 (Figure 2)
# Description: as §2, §1, §3
# [9] = test system: LPS/TLR4; assay: LPS (TLR4)-induced TNF-α and IL-6 release from RAW264.7 cells (ELISA); type: cell-based, mouse; settings: LPS 20 ng/mL; n = 3 (Figure 2)
# Description: as §2, §1, §3
compound,measurement,setting,value
5′-TCGTCGTTTTGTCGTTTTGTCGTT-3′ [ODN2006],effect on activation of p65 (CpG ODN stimulation),[1],significantly increased
same,"MFI and percentage of cells with green fluorescence (FAM-2006 + SP, competition)","[2]; non-labeled ODN2006 0, 0.5, 1.5 or 4.5 μM, dose-dependent",increased the MFI and the percentage of cells with green fluorescence
same,restoration of FAM-2006 internalization (competition),[2]; non-labeled ODN2006 4.5 μM,completely restore cell internalization of FAM-2006
same,effect on TNF-α and IL-6 release (CpG ODN stimulation),[3],significantly increased
same,effect on TNF-α and IL-6 release (stimulation),"[3]; ODN2006 1.5 μM, n = 3 (Figure 2)",significantly increased
same,levels of IκBα phosphorylation and degradation (CpG ODN stimulation),[4],significantly increased
"5′-TGGCGCGGGCGG-3′ (DNA, all phosphorothioate, methylation of C not given here) [ODN107, a stimulatory CpG ODN developed in our laboratory]",effect on activation of p65 (CpG ODN stimulation),[1],significantly increased
same,effect on TNF-α and IL-6 release (CpG ODN stimulation),[3],significantly increased
CCN(CC)CCCC(C)Nc1ccnc2cc(Cl)ccc12 (stereo not shown) [chloroquine],effect on CpG ODN-induced cytokine release,[5],inhibitors of CpG ODN-induced cytokine release
same,effect on proinflammatory cytokines,[5],inhibited proinflammatory cytokines
O=C(N/N=C/c1ccc(O)c(O)c1)c1cc2ccccc2cc1O [dynasore],effect on TLR signaling,[6],significant inhibitory effects on TLR signaling
same,cell toxicity,[7]; ref [24],distinct cell toxicity
CN(C)c1cccc2c(S(=O)(=O)NCCCCCN)cccc12 [monodansylcadaverine],effect on TLR signaling,[6],significant inhibitory effects on TLR signaling
same,cell toxicity,[7],distinct cell toxicity
PAM3CSK4,effect on TNF-α and IL-6 release (stimulation),[8],significantly increased
lipopolysaccharide [LPS],effect on TNF-α and IL-6 release (stimulation),[9],significantly increased
